The source of these data is US20220017491A1, “COMPOUND INHIBITING YAP-TEAD BINDING, AND PHARMACEUTICAL COMPOSITION FOR PREVENTING OR TREATING CANCER, COMPRISING COMPOUND AS ACTIVE INGREDIENT” (KOREA RESEARCH INSTITUTE OF CHEMICAL TECHNOLOGY, priority 2018, published 2022).

SMILES strings stand for the structures.

In assay [1] the test system is YAP-TEAD. The assay is described as follows: Luciferase assay of YAP-TEAD binding inhibition (TEAD luciferase reporter 8XGTIIC in HEK293T cells). The format is cell-based. Conditions: 10 μM, 24 hours, luciferase normalized with β-galactosidase. The protocol: A Luciferase assay which allows an inhibition degree of YAP-TEAD, previously reported in Cancers 2018, 10(5), 140, was used to measure an in vitro binding inhibition rate of YAP-TEAD.
HEK293T cells were purchased from American Type Culture Collection and incubated in DMEM media containing 10% FBS, L-glutamine, and penicillin/streptomycin. The HEK293T cells were seeded in a 24 well plate at a density of 1×10^5, and coated with polyethyleneamine (10 μg/mL). These cells were transfected with 8XGTIIC-luciferase (Addgene reference 34615) which is TEAD luciferase reporter plasmid and control β-galactosidase plasmid CMV-β-Gal using a lipofectamine 2000 reagent (Life Technologies, Inc.) according to the manufacturer's manual. Thereafter, the compound of the present invention was treated at a concentration of 10 μM for 24 hours, the cells were lysed using a Reporter lysis buffer (Promega, France), luciferase activity was read with a Mithras LB940 plate reader, and then normalization was performed with β-galactosidase.

In assay [2] the test system is HT29 cells. In words: Proliferation assay for HT29 colorectal cancer cells (CellTiter-Glo cell viability). The format is cell-based. Conditions: Homo sapiens, HT-29; HT29 colorectal cancer cell line, 72 hours, ATP detection. The protocol: HT-29 which is a commercially available colorectal cancer cell line was treated with trypsin-EDTA, incubated, and seeded in a 96 well plate. […] The treated cells were incubated for further 72 hours and cell viability was measured by an ATP detection method (CellTiter-Glo LuminescentCell Viability Assay, Promega).
In order to confirm the anticancer effect of the compounds according to the present invention, a proliferation assay for HT29 cells which are a colorectal cancer cell line was performed by the above method, and IC50 values as a result are listed in the following Table 4: […]

Assay [3] relates to AOM/DSS-induced colorectal cancer. In words: Anticancer activity in AOM/DSS orthotopic syngeneic mouse model. Type of assay: in vivo, B6 mouse. Conditions: intraperitoneally for three weeks; intestinal tissue FACS; FIG. 3. The protocol: In order to measure an anticancer effect in the state of immunity existing in a large intestine, a conventionally known AOM/DSS model was used to measure anticancer activity (J. Vis. Exp. (67), e4100 10.3791/4100, Cell Death & Dis. 2018, 9, 153).
A B6 mouse was adapted to an animal room for one week and then azoxymethane (AOM) was injected intraperitoneally at 10 mg/kg. After one week, the B6 mouse was supplied with a 2.5% dextran sulfate sodium (DSS) solution for one week and alternatively supplied with fresh water for two weeks, which was repeated three time, thereby causing colorectal cancer. After colorectal cancer was caused, the YAP-TEAD inhibition compound 17 of the present invention was injected intraperitoneally at 50 mg/kg, five times a week, for three weeks. After the dosing period was over, an intestine tissue was surgically isolated and the number and size of cancer tissue in the intestine tissue were measured and quantitatively analyzed, and the results are illustrated in FIGS. 1 to 3.
In addition, in order to confirm a ratio of Treg cells which play an important role in immunosuppression in cancer tissues, FACS analysis was performed. […]

For `COCCCN1C(=O)c2cccc3c(NC(=O)C4CCCCN4S(=O)(=O)c4sc(NC(C)=O)nc4C)ccc1c23` (stereo not shown) [Compound 43], in assay [1], the “Inhibition(%)” value came out at 50%. This molecule also registered an IC50 in assay [2] of 35 µM.

On to `COCCCN1C(=O)c2cccc3c(NC(=O)C4CCCCN4S(=O)(=O)c4c(Cl)nc5sccn45)ccc1c23` (stereo not shown) [Compound 78], for which, in assay [1], the “Inhibition(%)” value was 53%. Besides, the 50% inhibitory concentration (IC50) in assay [2] was determined as 30.1 µM.

As to `COCCCN1C(=O)c2cccc3c(NC(=O)C4CCCCN4S(=O)(=O)c4ccc(Br)s4)ccc1c23` (stereo not shown) [Compound 60], the “Inhibition(%)” value in assay [1] was 67%. Besides, in assay [2], the IC50 amounted to 12.5 µM.

As to `COCCCN1C(=O)c2cccc3c(NC(=O)C4CCCCN4S(=O)(=O)c4cccs4)ccc1c23` (stereo not shown) [Compound 17], the “Treg cells in cancer tissue (FACS, CD4 and Fop3)” value in assay [3] is “Treg cell decrease was confirmed”. Also, in assay [1], the “Inhibition(%)” value was 78%. Also, in assay [2], 6.91 µM corresponded to half-maximal inhibition (IC50).

Take `COc1ccc(CCN2C(=O)c3cccc4c(NC(=O)C5CCCCN5S(=O)(=O)c5cccs5)ccc2c34)cc1` (stereo not shown) [Compound 15]: the “Inhibition(%)” value in assay [1] came to 81%. In assay [2], it took 2.99 µM to reach half-maximal inhibition (IC50).

On to `COCCCN1C(=O)c2cccc3c(NC(=O)C4CCCN(S(=O)(=O)c5ccc(Cl)s5)C4)ccc1c23` (stereo not shown) [Compound 29], for which the “Inhibition(%)” value in assay [1] came out at 87%. In assay [2], this molecule showed an IC50 of 12.2 µM.

Regarding `COCCCN1C(=O)c2cccc3c(NC(=O)C4CCCCN4S(=O)(=O)c4ccc(-c5ccccn5)s4)ccc1c23` (stereo not shown) [Compound 118], the “Inhibition(%)” value in assay [1] is listed as 84%. Moreover, in assay [2], the IC50 was determined as 2.9 µM.

Turning to `N#CCCCN1C(=O)c2cccc3c(NC(=O)C4CCCCN4S(=O)(=O)c4cccs4)ccc1c23` (stereo not shown) [Compound 20], in assay [1], the “Inhibition(%)” value is recorded as 65%. In assay [2], this molecule yielded an IC50 of 32.3 µM.

As to `COCCCN1C(=O)c2cccc3c(NC(=O)C4CCCN(S(=O)(=O)c5cccc6cccnc56)C4)ccc1c23` (stereo not shown) [Compound 75], the “Inhibition(%)” value in assay [1] was determined as 93%. The molecule further showed an IC50 in assay [2] of 16.8 µM.

Regarding `COCCCN1C(=O)c2cccc3c(NC(=O)C4CCCCN4S(=O)(=O)c4ccc5c(c4)OCCO5)ccc1c23` (stereo not shown) [Compound 83], the “Inhibition(%)” value in assay [1] is 92%. Moreover, in assay [2], it took 19.4 µM to reach half-maximal inhibition (IC50).

As to `COCCCN1C(=O)c2cccc3c(NC(=O)C4CCCCN4S(=O)(=O)c4ccc5c(c4)CCO5)ccc1c23` (stereo not shown) [Compound 39], the “Inhibition(%)” value in assay [1] came out at 66%. Also, half-maximal inhibition in assay [2] (IC50) was put at 20.3 µM.

Consider `COCCCN1C(=O)c2cccc3c(NC(=O)C4CCCCN4S(=O)(=O)c4ccc(Cl)s4)ccc1c23` (stereo not shown) [Compound 30], for which the “Inhibition(%)” value in assay [1] was 56%. For the same molecule, half-maximal inhibition in assay [2] (IC50) was put at 22 µM.

Consider `COC(C)(C)CCN1C(=O)c2cccc3c(NC(=O)C4CCCCN4S(=O)(=O)c4cccs4)ccc1c23` (stereo not shown) [Compound 58], for which the “Inhibition(%)” value in assay [1] came to 65%. In assay [2], this molecule registered a 50% inhibitory concentration (IC50) of 10.2 µM.

`COCCCN1C(=O)c2cccc3c(NC(=O)C4CCCN(S(=O)(=O)c5ccc6c(c5)OCO6)C4)ccc1c23` (stereo not shown) [Compound 56]: the “Inhibition(%)” value in assay [1] worked out at 63%. In assay [2], this molecule yielded an IC50 of 9.8 µM.

In the case of `COCCCN1C(=O)c2cccc3c(NC(=O)C4CCCCN4S(=O)(=O)c4cc5c(s4)CCCC5)ccc1c23` (stereo not shown) [Compound 84], the “Inhibition(%)” value in assay [1] turned out to be 83%. The IC50 in assay [2] amounted to 8.2 µM.

For `COCCCN1C(=O)c2cccc3c(NC(=O)C4CCCN(S(=O)(=O)c5c(Cl)nc6sccn56)C4)ccc1c23` (stereo not shown) [Compound 68], the “Inhibition(%)” value in assay [1] was found to be 81%. In assay [2], the IC50 was determined as 10.9 µM.

For `COCCCN1C(=O)c2cccc3c(NC(=O)C4CCCCN4S(=O)(=O)c4c(Cl)sc(Cl)c4Br)ccc1c23` (stereo not shown) [Compound 66], the “Inhibition(%)” value in assay [1] came to 59%. In addition, half-maximal inhibition in assay [2] (IC50) required 8.7 µM.

`COCCCN1C(=O)c2cccc3c(NC(=O)C4CCCCN4S(=O)(=O)c4ccc(OC)c(OC)c4)ccc1c23` (stereo not shown) [Compound 42]: the “Inhibition(%)” value in assay [1] amounted to 68%. This molecule registered a 50% inhibitory concentration (IC50) in assay [2] of 44.5 µM.

For the molecule `CN(CCCN1C(=O)c2cccc3c(NC(=O)C4CCCCN4S(=O)(=O)c4cccs4)ccc1c23)S(C)(=O)=O` (stereo not shown) [Compound 117], in assay [1], the “Inhibition(%)” value is 85%. The same molecule yielded an IC50 in assay [2] of 12 µM.

For the molecule `COCCCN1C(=O)c2cccc3c(NC(=O)C4CCCN(S(=O)(=O)c5cccc6nsnc56)C4)ccc1c23` (stereo not shown) [Compound 69], the “Inhibition(%)” value in assay [1] came out at 94%. In assay [2], this molecule came in with a 50% inhibitory concentration (IC50) of 16.8 µM.

Turning to `COCCCN1C(=O)c2cccc3c(NC(=O)C4CCCN(S(=O)(=O)c5ccc(OCCOC)c(C)c5)C4)ccc1c23` (stereo not shown) [Compound 122], the “Inhibition(%)” value in assay [1] turned out to be 68%. The IC50 in assay [2] amounted to 6.5 µM.

`COCCCN1C(=O)c2cccc3c(NC(=O)C4CCCN(S(=O)(=O)c5scnc5C)C4)ccc1c23` (stereo not shown) [Compound 64]: the “Inhibition(%)” value in assay [1] is reported as 76%. The molecule also had an IC50 in assay [2] of 24.7 µM.

For the molecule `COCCCN1C(=O)c2cccc3c(NC(=O)C4CCCCN4S(=O)(=O)c4cccc5nsnc45)ccc1c23` (stereo not shown) [Compound 79], the “Inhibition(%)” value in assay [1] turned out to be 71%. The molecule further displayed an IC50 in assay [2] of 14 µM.

Take `COCCCN1C(=O)c2cccc3c(NC(=O)C4CCCN(S(=O)(=O)c5ccc(Br)s5)C4)ccc1c23` (stereo not shown) [Compound 59]: the “Inhibition(%)” value in assay [1] was determined as 87%. The same molecule returned an IC50 in assay [2] of 7.6 µM.
